# Source: patent US20200131249A1, “NOVEL PROTEINS AND USE THEREOF” (EVOLVERITAS KFT., priority 2017, published 2020)
# Where no end group is shown, it is not given here.
# Legend:
# human MASP-1 = biological target: T1, human MASP-1 (Homo sapiens, UniProt P48740); assay: KI determination on human MASP-1 catalytic fragment; format: biochemical; set-up: key to KI on human MASP-1: N.E.: not effective; settings: for KI on human MASP-1: catalytic fragment, Z-L-Lys-SBzl
# T1 construct: catalytic enzyme fragments containing the three C-terminal domains: CCP1-CCP2-SP
# T1 sequence (P48740 449-699 limits assumed): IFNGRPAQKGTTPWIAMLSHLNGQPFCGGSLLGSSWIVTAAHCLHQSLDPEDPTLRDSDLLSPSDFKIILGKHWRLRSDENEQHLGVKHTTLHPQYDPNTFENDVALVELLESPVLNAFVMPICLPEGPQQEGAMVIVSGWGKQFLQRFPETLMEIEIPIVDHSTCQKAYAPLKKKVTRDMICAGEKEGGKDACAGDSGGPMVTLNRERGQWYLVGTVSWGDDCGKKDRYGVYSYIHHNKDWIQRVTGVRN
# T1 sequence (P48740 298-448 partner limits assumed): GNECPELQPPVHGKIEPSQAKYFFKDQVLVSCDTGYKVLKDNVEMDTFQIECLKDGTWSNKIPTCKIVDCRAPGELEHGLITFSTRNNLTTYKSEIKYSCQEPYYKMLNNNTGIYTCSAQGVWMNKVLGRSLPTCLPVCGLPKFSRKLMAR
# Protocol: (§1) The inhibition equilibrium constant (KI) of all four inhibitor variants produced was measured on human MASP-2 and rat MASP-2. Additionally, KI values were measured also on human MASP-1 and human MASP-3 to assess the specificity of the inhibitors amongst the MASP enzymes. KI values of the inhibitors on bovine trypsin, a pancreatic model enzyme was also measured.
# (§2) For determining the KI of the inhibitors on MASP enzymes we used catalytic enzyme fragments containing the three C-terminal domains: CCP1-CCP2-SP. The synthetic substrate used in the measurements was Z-L-Lys-SBzl hydrochloride (Sigma, C3647), from which a 10 mM stock solution was prepared. The reactions were performed in a volume of 0.2 ml at room temperature in a buffer consisting of 20 mM HEPES; 145 mM NaCl; 5 mM CaCl2; 0.05% Triton-X100. The substrate cleaved by the enzyme entered into a reaction with the 5,5′-Dithiobis(2-nitrobenzoic acid) (DTNB, Ellman's reagent, Sigma—D8130) auxiliary substrate present in the solution in 2-fold excess to Z-L-Lys-SBzl. The release of the chromophore group created in this way was monitored via the change of absorbance at 410 nm using a BioTek Synergy H4 multimode microplate reader.
# (§3) A dilution sequence was prepared from the individual inhibitors, the enzyme was added to it, and it was incubated for 2 hours at room temperature. The samples were transferred on a 96-well microtiter plate (Nunc 269620). The reactions were started by adding the mixture of the substrate and the auxiliary substrate to the samples. The concentration of the substrate and the length of the measuring period were chosen so that under the given conditions the enzyme should consume less than 10% of the substrate. In this case we used 250 μM Z-L-Lys-SBzl and 500 μM DTNB in the reactions. In the course of measuring, a method developed for the characterisation of tight-binding inhibitors was used (Empie, 1982). The concentration of the product was measured as a function of reaction time. The slope of the straight line determined for the initial phase of the reaction was normalised with the slope obtained for the uninhibited enzyme reaction, and this value was multiplied with the total enzyme concentration. As a result of this we obtained the free enzyme concentration, which was plotted as a function of the total inhibitor concentration and the Ki value was determined according to the following equation:
# (§4) E=y=E0−(E0+x+Ki−(((E0+x+Ki)^2)−4*E0*x)^(½))/2,
# (§5) where E is the free (uninhibited) enzyme concentration, and E0 is the total enzyme concentration. The stock concentration of the inhibitors was determined by titration with bovine trypsin of known concentration. The results were calculated as the average of parallel measurements.
# human MASP-3 = biological target: T2, human MASP-3 (Homo sapiens, UniProt P48740); assay: KI determination on human MASP-3 catalytic fragment; format: biochemical; settings: for Ki: catalytic fragment, Z-L-Lys-SBzl
# T2 construct: catalytic enzyme fragments containing the three C-terminal domains: CCP1-CCP2-SP
# T2 sequence (P48740 450-728 isoform P48740-2 limits assumed): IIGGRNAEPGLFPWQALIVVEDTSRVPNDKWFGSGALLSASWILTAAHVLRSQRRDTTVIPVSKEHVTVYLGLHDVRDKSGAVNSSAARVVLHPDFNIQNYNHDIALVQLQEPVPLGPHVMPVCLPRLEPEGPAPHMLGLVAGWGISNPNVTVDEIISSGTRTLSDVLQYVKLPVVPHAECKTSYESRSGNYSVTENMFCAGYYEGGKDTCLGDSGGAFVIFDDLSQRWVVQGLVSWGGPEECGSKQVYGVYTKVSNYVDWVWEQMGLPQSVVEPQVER
# Protocol: as §1, §2, §3, §4, §5
# porcine trypsin = porcine trypsin (Sus scrofa, UniProt P00761); settings: Petersen 1996; read-out: KI towards porcine trypsin; cited from earlier work
# MASP-2 = MASP-2 (Homo sapiens, UniProt O00187); set-up: host or cells: diluted serum; settings: Wouters 2011; Keizer 2015; read-out: IC50 of MASP-2 inhibition in solid phase ELISA assay with diluted serum; cited from earlier work
# intrinsic pathway = assay: Activated partial thromboplastin time (APTT) in human plasma
# Protocol: (§6) Blood coagulation measurements using blood plasma taken from healthy human individuals were also performed. From the blood obtained through venipuncture and treated with sodium citrate (3.8% wt/vol) the plasma was isolated by centrifugation (2,000 g, 15 minutes, Jouan CR412 centrifuge).
# (§7) The effect of the protein variants of the present invention on the blood coagulation process was tested in three standard assays, the thrombin time, testing any direct effects on thrombin; prothrombin time, testing any effects on the extrinsic pathway; and the activated partial thromboplastin time, testing any effects on the intrinsic pathway. Blood was collected from a healthy individual by vein puncture after informed consent. The blood was treated with sodium-citrate (3.8% w/v) and centrifuged. All three assays were performed on the automated instrument Sysmex CA-1500 (Sysmex) with Innovin reagent (Dale Behring, Marburg, Germany).
# (§8) The inhibitors were applied in a fivefold serial dilution with the highest final concentration being 36 μM. This value is 3-4 orders of magnitudes higher than the KI values of the three protein variants of the present invention on human MASP-2. Even at the highest concentration the protein variants of the present invention have only little effect in the APTT test and no effect in the PT and TT tests.
# extrinsic pathway = assay: Prothrombin time (PT) in human plasma
# Protocol: as §6, §7, §8
# thrombin = assay: Thrombin time (TT) in human plasma
# Protocol: as §6, §7, §8
# rat MASP-2 = biological target: T3, rat MASP-2 (Rattus norvegicus, UniProt Q9JJS8); assay: KI determination on rat MASP-2 catalytic fragment; format: biochemical; settings: KI ratio
# T3 construct: made in house
# Protocol: as §1
# For determining the KI of the inhibitors on MASP enzymes we used catalytic enzyme fragments containing the three C-terminal domains: CCP1-CCP2-SP. The synthetic substrate used in the measurements was Z-L-Lys-SBzl hydrochloride (Sigma, C3647), from which a 10 mM stock solution was prepared. […] The release of the chromophore group created in this way was monitored via the change of absorbance at 410 nm using a BioTek Synergy H4 multimode microplate reader.
# A dilution sequence was prepared from the individual inhibitors, the enzyme was added to it, and it was incubated for 2 hours at room temperature. […] The concentration of the product was measured as a function of reaction time. The slope of the straight line determined for the initial phase of the reaction was normalised with the slope obtained for the uninhibited enzyme reaction, and this value was multiplied with the total enzyme concentration. […]
# Chain of porcine trypsin (P00761 9-231): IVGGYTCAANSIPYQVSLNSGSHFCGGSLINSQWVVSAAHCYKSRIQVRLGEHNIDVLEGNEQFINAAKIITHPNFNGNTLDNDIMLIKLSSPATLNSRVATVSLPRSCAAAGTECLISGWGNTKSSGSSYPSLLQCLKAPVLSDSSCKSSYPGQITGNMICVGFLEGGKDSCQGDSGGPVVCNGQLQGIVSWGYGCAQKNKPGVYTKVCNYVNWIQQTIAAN
# T3 sequence (Q9JJS8 with tags, fused parts or gaps L506P/I507H/R622A): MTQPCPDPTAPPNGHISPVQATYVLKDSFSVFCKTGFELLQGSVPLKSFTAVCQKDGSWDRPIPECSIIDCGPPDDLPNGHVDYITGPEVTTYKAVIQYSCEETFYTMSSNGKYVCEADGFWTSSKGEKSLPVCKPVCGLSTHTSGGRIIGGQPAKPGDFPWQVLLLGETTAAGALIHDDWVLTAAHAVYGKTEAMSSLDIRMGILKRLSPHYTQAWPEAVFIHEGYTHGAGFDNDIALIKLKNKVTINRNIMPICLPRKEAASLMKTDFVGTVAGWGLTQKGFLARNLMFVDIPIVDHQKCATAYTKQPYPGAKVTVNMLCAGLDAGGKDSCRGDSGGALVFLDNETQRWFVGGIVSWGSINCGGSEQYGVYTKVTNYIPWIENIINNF
# Chain of MASP-2 (O00187 16-686, species assumed): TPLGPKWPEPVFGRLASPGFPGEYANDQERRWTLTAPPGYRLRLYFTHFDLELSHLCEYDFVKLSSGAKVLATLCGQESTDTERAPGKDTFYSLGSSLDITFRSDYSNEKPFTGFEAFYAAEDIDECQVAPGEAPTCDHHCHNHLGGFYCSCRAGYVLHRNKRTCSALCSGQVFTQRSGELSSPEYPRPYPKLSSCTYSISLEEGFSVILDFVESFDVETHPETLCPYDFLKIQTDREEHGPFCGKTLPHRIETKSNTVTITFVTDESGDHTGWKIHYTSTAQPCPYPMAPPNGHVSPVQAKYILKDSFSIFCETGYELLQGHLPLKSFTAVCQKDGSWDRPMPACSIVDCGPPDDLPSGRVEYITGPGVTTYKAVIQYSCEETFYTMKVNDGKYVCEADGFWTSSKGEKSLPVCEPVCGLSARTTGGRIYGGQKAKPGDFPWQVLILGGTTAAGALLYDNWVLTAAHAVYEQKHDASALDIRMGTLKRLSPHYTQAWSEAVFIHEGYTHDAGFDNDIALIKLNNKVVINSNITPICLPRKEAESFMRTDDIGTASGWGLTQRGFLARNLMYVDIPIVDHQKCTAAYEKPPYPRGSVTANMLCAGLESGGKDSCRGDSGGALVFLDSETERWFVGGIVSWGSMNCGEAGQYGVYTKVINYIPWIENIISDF
Substance,KI on human MASP-1 (human MASP-1),Ki (human MASP-3) [µM],APTT (intrinsic pathway; inhibitor 0.1 μM) [s],APTT (intrinsic pathway; inhibitor 0.3 μM) [s],APTT (intrinsic pathway; inhibitor 1.4 μM) [s],APTT (intrinsic pathway; inhibitor 7.2 μM) [s],APTT (intrinsic pathway; inhibitor 36.0 μM) [s],PT (extrinsic pathway; inhibitor 0.1 μM) [s],PT (extrinsic pathway; inhibitor 0.3 μM) [s],PT (extrinsic pathway; inhibitor 1.4 μM) [s],PT (extrinsic pathway; inhibitor 7.2 μM) [s],PT (extrinsic pathway; inhibitor 36.0 μM) [s],TT (thrombin; inhibitor 0.1 μM) [s],TT (thrombin; inhibitor 0.3 μM) [s],TT (thrombin; inhibitor 1.4 μM) [s],TT (thrombin; inhibitor 7.2 μM) [s],TT (thrombin; inhibitor 36.0 μM) [s],also measured
TFPI-D2 [reference compound],N.E.,> 30,–,–,–,–,–,–,–,–,–,–,–,–,–,–,–,inhibition of MASP-1 (human MASP-1; result in words): No considerable inhibition; inhibition of MASP-3 (human MASP-3; result in words): No considerable inhibition; Ki (porcine trypsin): 0.0001 µM; IC50 (MASP-2): 10 µM
SEQ ID NO: 11: TFPI-D2 variant protein with inhibitor loop FCRAVKR (SEQ ID NO: 1) (KPDFCFLEEDPGFCRAVKRRYFYNNQTKQCERFKYGGCLGNMNNFETLEECKNICEDG; ends and bridges not checked; cysteine pairing not given here),N.E.,> 30,36.3,36.5,37.0,39.3,46.0,10.7,10.8,11.0,11.0,11.4,16.5,16.6,16.7,16.4,16.0,–
SEQ ID NO: 17: TFPI-D2 variant protein with inhibitor loop VCRAVKR (SEQ ID NO: 7) (KPDFCFLEEDPGVCRAVKRRYFYNNQTKQCERFKYGGCLGNMNNFETLEECKNICEDG; ends and bridges not checked; cysteine pairing not given here),N.E.,> 30,36.8,37.2,38.1,40.6,47.4,10.8,10.8,10.8,10.9,11.4,16.6,16.3,16.4,16.4,16.0,fold more potent than SGMI-2 on rat MASP-2 (rat MASP-2): about 3 fold
